Assay results published in PubChem BioAssay (NCI).
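Method: 48-hour compound exposure of cells in 96-well plates, five concentrations, linear interpolation of endpoints. GI50: concentration for 50% inhibition of growth. TGI is the concentration that stops growth completely.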

What was measured:
Test in all cases: DTP human tumour cell line panel, 48 h
786-0 renal = test system: 786-0 renal
A498 renal = test system: A498 renal
ACHN renal = test system: ACHN renal
BT-549 breast = test system: BT-549 breast
CAKI-1 renal = test system: CAKI-1 renal
DU-145 prostate = test system: DU-145 prostate
HCT-15 colon = test system: HCT-15 colon
HL-60(TB) leukemia = test system: HL-60(TB) leukemia
HOP-92 NSCLC = test system: HOP-92 NSCLC
HS 578T breast = test system: HS 578T breast
HT29 colon = test system: HT29 colon
IGROV1 ovarian = test system: IGROV1 ovarian
K-562 leukemia = test system: K-562 leukemia
KM12 colon = test system: KM12 colon
MALME-3M melanoma = test system: MALME-3M melanoma
MCF7 breast = test system: MCF7 breast
MDA-MB-231 breast = test system: MDA-MB-231 breast
MDA-MB-435 = test system: MDA-MB-435
NCI-H226 lung = test system: NCI-H226 lung
NCI-H23 lung = test system: NCI-H23 lung
OVCAR-4 ovarian = test system: OVCAR-4 ovarian
OVCAR-5 ovarian = test system: OVCAR-5 ovarian
OVCAR-8 ovarian = test system: OVCAR-8 ovarian
PC-3 prostate = test system: PC-3 prostate
RXF 393 renal = test system: RXF 393 renal
SF-268 CNS = test system: SF-268 CNS
SK-MEL-28 melanoma = test system: SK-MEL-28 melanoma
SK-OV-3 ovarian = test system: SK-OV-3 ovarian
SNB-19 CNS = test system: SNB-19 CNS
SW-620 colon = test system: SW-620 colon
TK-10 renal = test system: TK-10 renal
UACC-257 melanoma = test system: UACC-257 melanoma
UO-31 renal = test system: UO-31 renal

CN(CCC#N)c1ccc(/C=C(\C#N)c2ccc(Br)cc2)cc1
GI50 (786-0 renal): > 100 µM | TGI (786-0 renal): > 100 µM | GI50 (A498 renal): > 100 µM | TGI (A498 renal): > 100 µM | GI50 (ACHN renal): > 100 µM | TGI (ACHN renal): > 100 µM | GI50 (BT-549 breast): > 100 µM | TGI (BT-549 breast): > 100 µM | GI50 (CAKI-1 renal): > 100 µM | TGI (CAKI-1 renal): > 100 µM | GI50 (DU-145 prostate): > 100 µM | TGI (DU-145 prostate): > 100 µM | GI50 (HCT-15 colon): 2.9 µM | TGI (HCT-15 colon): > 100 µM | GI50 (HL-60(TB) leukemia): 4.43 µM | TGI (HL-60(TB) leukemia): > 100 µM | GI50 (HOP-92 NSCLC): 2.52 µM | TGI (HOP-92 NSCLC): > 100 µM | GI50 (HS 578T breast): > 100 µM | TGI (HS 578T breast): > 100 µM | GI50 (HT29 colon): 3.16 µM | TGI (HT29 colon): > 100 µM | GI50 (IGROV1 ovarian): > 100 µM | TGI (IGROV1 ovarian): > 100 µM | GI50 (K-562 leukemia): 3.5 µM | TGI (K-562 leukemia): > 100 µM | GI50 (KM12 colon): 3.7 µM | TGI (KM12 colon): > 100 µM | GI50 (MALME-3M melanoma): > 100 µM | TGI (MALME-3M melanoma): > 100 µM | GI50 (MCF7 breast): 4.05 µM | TGI (MCF7 breast): > 100 µM | GI50 (MDA-MB-231 breast): 4.72 µM | TGI (MDA-MB-231 breast): > 100 µM | GI50 (MDA-MB-435): 1.97 µM | TGI (MDA-MB-435): > 100 µM | GI50 (NCI-H226 lung): > 100 µM | TGI (NCI-H226 lung): > 100 µM | GI50 (NCI-H23 lung): > 100 µM | TGI (NCI-H23 lung): > 100 µM | GI50 (OVCAR-4 ovarian): > 100 µM | TGI (OVCAR-4 ovarian): > 100 µM | GI50 (OVCAR-5 ovarian): > 100 µM | TGI (OVCAR-5 ovarian): > 100 µM | GI50 (OVCAR-8 ovarian): > 100 µM | TGI (OVCAR-8 ovarian): > 100 µM | GI50 (PC-3 prostate): > 100 µM | TGI (PC-3 prostate): > 100 µM | GI50 (RXF 393 renal): 3.37 µM | TGI (RXF 393 renal): > 100 µM | GI50 (SF-268 CNS): > 100 µM | TGI (SF-268 CNS): > 100 µM | GI50 (SK-MEL-28 melanoma): > 100 µM | TGI (SK-MEL-28 melanoma): > 100 µM | GI50 (SK-OV-3 ovarian): > 100 µM | TGI (SK-OV-3 ovarian): > 100 µM | GI50 (SNB-19 CNS): > 100 µM | TGI (SNB-19 CNS): > 100 µM | GI50 (SW-620 colon): 3.87 µM | TGI (SW-620 colon): > 100 µM | GI50 (TK-10 renal): > 100 µM | TGI (TK-10 renal): > 100 µM | GI50 (UACC-257 melanoma): > 100 µM | TGI (UACC-257 melanoma): > 100 µM | GI50 (UO-31 renal): > 100 µM | TGI (UO-31 renal): > 100 µM
